The values below come from US8143248B2, “Tricyclic N-heteroaryl-carboxamide derivatives containing a benzimidazole unit, method for preparing same and their therapeutic use” (Sanofi-Aventis, priority 2006, dated 2012).

In data set [1] the target is T1, TRPV1 receptors (Mus musculus, UniProt Q704Y3).
T1 construct: application of a very small amount of capsaicin (2 μl at a concentration of 160 μM) to the surface of the cornea of an animal; from tissue; host or cells: mouse cornea in vivo (C fibres)
As to the kind of experiment: Mouse corneal irritation test (capsaicin-induced eye rubbing). It is filed as in vivo. Particulars: compound 500 μM, 2 μl on the cornea 10 minutes before capsaicin 160 μM; eye rubs counted over 2 minutes. On the procedure:
Mouse Corneal Irritation Test
The irritant nature of capsaicin can be readily assessed at the level of the cornea since this organ is one of the most innervated by C fibers. In this context, according to the preliminary experiments, the application of a very small amount of capsaicin (2 μl at a concentration of 160 μM) to the surface of the cornea of an animal results in a certain number of stereotyped behaviors associated with the irritation and that can be readily listed. Among these are: blinking of the eye, rubbing of the eye instilled with the ipsilateral forelimb, rubbing of the face with both forelimbs, scratching of the ipsilateral face with the hind limb. […] Its appearance is, moreover, also normal. […] It can be concluded from this that the duration of action of capsaicin at these doses is less than 2 minutes.
Summary of the Methodology:
The principle of the series of experiments is to determine whether the compounds of the invention can influence the behavioral response induced by a given amount of capsaicin. The capsaicin is initially diluted to 25 mM in DMSO and diluted, for its final use, in physiological saline with 10% Tween 80. It appears, based on control studies, that, under these conditions, the solvent has no effect.
In practice, the product to be tested, prepared at 25 mM in DMSO and diluted for its final use in physiological saline with 10% Tween 80, at the highest concentration of 500 μM, is administered by local application to the surface of the cornea in a volume of 2 μl, 10 minutes before the application of the capsaicin. The animal receives the ocular instillation of 2 μl of a solution of capsaicin at […] prepared as indicated above. Over the course of a period of observation of 2 minutes following the instillation, the number of times the instilled eye is rubbed by the ipsilateral forelimb is counted for each animal.
For a given group, the percentage protection is calculated as follows: P=100−((average number of scratches of the group treated with the compound/average number of scratches of the group treated with the solvent)×100). […]

Data set [2] has as its target T2, TRPV1 receptor (Rattus norvegicus, UniProt O35433).
T2 construct: The neurons of the DRG naturally express the TRPV1 receptor; endogenous in cells; host or cells: primary culture of newborn rat dorsal root ganglion neurons
As to the kind of experiment: Test for inhibition of the current induced by capsaicin on rat DRGs (whole-cell patch-clamp). It is filed as cell-based. Particulars: DRG neuron; compound at 10 nM; % inhibition of the control capsaicin response; newborn rat DRG neurons. On the procedure: Test for Inhibition of the Current Induced by Capsaicin on Rat DRGs
Primary Culture of Rat Dorsal Root Ganglion (DRG) Cells:
The neurons of the DRG naturally express the TRPV1 receptor.
Newborn rat DRG primary cultures are prepared from 1-day-old rat pups. Briefly, after dissection, the ganglia are trypsinized and the cells are mechanically dissociated by controlled trituration. The cells are resuspended in an Eagle's basal culture medium containing 10% of fetal calf serum, 25 mM KCl, 2 mM glutamine, 100 μg/ml gentamicin and 50 ng/ml of NGF, and then deposited onto laminin-coated glass cover slips (0.25×10^6 cells per cover slip) which are then placed in 12-well Corning dishes. The cells are incubated at 37° C. in a humidified atmosphere containing 5% CO2 and 95% air. […]
The measuring chambers (volume 800 μl) containing the cell preparation are placed on the platform of an inverted microscope (Olympus IMT2) equipped with Hoffman optics (Modulation Contrast, New York), and observed at the magnification of ×400. […] The overall currents (membrane potential fixed at −60 mV) are recorded with an Axopatch 1D amplifier (Axon Instruments, Foster City, Calif.), connected to a PC controlled by Pclamp8 software (Axon Instrument). The current traces are recorded on paper and simultaneously digitized (sampling frequency 15 to […]) and acquired on the hard drive of the PC. […]
On the technique in general: Patch clamp records ionic current or voltage across a cell membrane.

The melting point is the temperature, or range, at which the solid turns liquid. In general, inhibition refers to the percentage by which the read-out fell short of the control. Higher therefore signals strong suppression.

T1 sequence (Q704Y3 whole entry): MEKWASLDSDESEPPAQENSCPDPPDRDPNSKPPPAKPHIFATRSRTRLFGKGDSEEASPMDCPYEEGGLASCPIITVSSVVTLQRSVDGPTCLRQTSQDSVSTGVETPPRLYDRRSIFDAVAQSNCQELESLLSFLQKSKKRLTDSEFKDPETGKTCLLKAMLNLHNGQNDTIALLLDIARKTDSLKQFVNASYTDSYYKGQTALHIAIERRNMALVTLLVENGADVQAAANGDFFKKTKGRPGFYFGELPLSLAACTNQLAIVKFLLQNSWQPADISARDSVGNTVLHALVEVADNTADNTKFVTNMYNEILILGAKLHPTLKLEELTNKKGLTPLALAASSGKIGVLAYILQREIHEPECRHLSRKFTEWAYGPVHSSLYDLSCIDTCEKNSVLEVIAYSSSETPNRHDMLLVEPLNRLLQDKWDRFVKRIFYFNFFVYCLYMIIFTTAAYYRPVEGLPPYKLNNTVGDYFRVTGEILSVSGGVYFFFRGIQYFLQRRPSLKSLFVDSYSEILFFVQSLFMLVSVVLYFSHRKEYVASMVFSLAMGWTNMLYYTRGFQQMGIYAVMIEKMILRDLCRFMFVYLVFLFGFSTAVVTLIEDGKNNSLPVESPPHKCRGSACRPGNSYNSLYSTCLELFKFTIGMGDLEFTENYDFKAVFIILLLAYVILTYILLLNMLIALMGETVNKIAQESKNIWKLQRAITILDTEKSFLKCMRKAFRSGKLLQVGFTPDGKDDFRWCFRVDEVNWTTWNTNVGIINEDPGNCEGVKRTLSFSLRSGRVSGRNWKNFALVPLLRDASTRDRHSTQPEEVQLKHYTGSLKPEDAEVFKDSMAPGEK
T2 sequence (O35433 whole entry): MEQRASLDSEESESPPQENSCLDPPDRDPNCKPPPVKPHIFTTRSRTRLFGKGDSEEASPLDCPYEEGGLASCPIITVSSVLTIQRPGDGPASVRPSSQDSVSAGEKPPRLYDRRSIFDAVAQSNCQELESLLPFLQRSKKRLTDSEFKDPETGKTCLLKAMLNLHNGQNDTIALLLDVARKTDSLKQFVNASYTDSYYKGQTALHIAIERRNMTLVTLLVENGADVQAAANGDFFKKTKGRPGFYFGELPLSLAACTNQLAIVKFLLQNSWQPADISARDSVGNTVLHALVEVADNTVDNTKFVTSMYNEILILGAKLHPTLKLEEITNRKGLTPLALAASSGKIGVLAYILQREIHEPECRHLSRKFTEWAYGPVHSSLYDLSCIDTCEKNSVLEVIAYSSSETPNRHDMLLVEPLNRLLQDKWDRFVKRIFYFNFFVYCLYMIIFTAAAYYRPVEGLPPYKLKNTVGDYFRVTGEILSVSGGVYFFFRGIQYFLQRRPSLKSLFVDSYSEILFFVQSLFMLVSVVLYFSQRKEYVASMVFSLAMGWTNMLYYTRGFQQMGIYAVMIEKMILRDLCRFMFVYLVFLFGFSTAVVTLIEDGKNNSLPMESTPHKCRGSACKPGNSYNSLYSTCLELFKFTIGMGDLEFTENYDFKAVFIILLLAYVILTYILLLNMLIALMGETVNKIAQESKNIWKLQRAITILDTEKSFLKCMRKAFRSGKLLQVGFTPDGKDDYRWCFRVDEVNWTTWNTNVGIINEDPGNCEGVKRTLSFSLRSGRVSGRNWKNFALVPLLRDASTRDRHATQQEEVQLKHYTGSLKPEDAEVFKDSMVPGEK

`O=C(Nc1ccc2nc3ncccn3c2c1)c1cc2cc(F)ccc2n1Cc1cccc(F)c1` had a melting point of 295 to 298 °C.
Turning to `O=C(Nc1ccc2c(c1)nc1n2CCC1)c1cc2cc(C(F)(F)F)cnc2n1Cc1ccccc1` [Compound 8, N-(2,3-dihydro-1H-pyrrolo[1,2-a]benzimidazol-6-yl)-1-benzyl-5-trifluoromethyl-1H-pyrrolo[2,3-b]pyridine-2-carboxamide], the “% P 500 μM (percentage protection)” value in data set [1] is recorded as 71%.
For the molecule `O=C(Nc1ccc2nc3n(c2c1)CCOC3)c1cc2cc(F)ccc2n1Cc1cccc(F)c1` [Compound 15, N-(3,4-dihydro-1H-oxazino[1,4][4,3-a]benzimidazol-7-yl)-5-fluoro-1-(3-fluorobenzyl)-1H-indole-2-carboxamide], in data set [1], the “% P 500 μM (percentage protection)” value is recorded as 56%.
The same measure, in the same setting: the same measure for `CC1CN=C2Nc3ccc(NC(=O)c4cc5cc(F)ccc5n4Cc4cccc(F)c4)cc3N21` (stereo not drawn) [Compound 26, N-(2,3-dihydro-3-methylimidazo[1,2-a]benzimidazol-6-yl)-5-fluoro-1-(3-fluorobenzyl)-1H-indole-2-carboxamide]: 46%.
For `O=C(Nc1ccc2c(c1)nc1n2CCC1)c1cc2cc(F)ccc2n1Cc1ccncc1` [Compound 5, N-(2,3-dihydro-1H-pyrrolo[1,2-a]benzimidazol-6-yl)-5-fluoro-1-[(pyridin-4-yl)methyl]-1H-indole-2-carboxamide], 0.01 µM produced 53% inhibition in data set [2].
On to `O=C(Nc1ccc2c(c1)nc1n2CCCC1)c1cc2cc(F)ccc2n1Cc1ccncc1` [Compound 1, N-(1,2,3,4-tetrahydropyrido[1,2-a]benzimidazol-7-yl)-5-fluoro-1-[(pyridin-4-yl)methyl]-1H-indole-2-carboxamide], for which the inhibition at 0.01 µM in data set [2] stood at 37%.
